Experimental findings from publication PMC11106739, “Discovery and Derivatization of Tridecaptin Antibiotics with Altered Host Specificity and Enhanced Bioactivity” (ACS Chemical Biology, 2024) are described below.

One experiment has as its system S. aureus 1126387. The class given is cell-based, Staphylococcus aureus. To be noted: 1126387, 20 h. The method, then: (§1) All minimum inhibitory concentrations (MICs) were determined according to the Clinical and Standards Laboratory Institute (CLSI) guidelines. In brief, agar plates were inoculated from glycerol stocks and incubated overnight at 35 °C. Peptide DMSO stocks were dispensed into 96-well round-bottom plates using a TECAN D300e dispenser. Colistin sulfate (Sigma-Aldrich) was dissolved in water and serially diluted in a cation-adjusted Mueller Hinton broth (10 μL per well). Final concentrations of the test compounds were 0.06 to 64 μg/mL. Inocula were prepared by direct colony suspension in NaCl at 0.5 MacFarland, which was further diluted 200-fold in cation-adjusted Mueller Hinton broth for a target inoculum of 2 × 10^5 colony forming units (CFUs)/mL. 100 μL portion of the prepared inoculum was added to each well of the prepared plates containing the test compounds. Plates were sealed with parafilm and incubated for 20 h at 35 °C. Images of all plates were recorded, and MIC was assessed visually.

In another experiment the test system is S. aureus ATCC 29213. The class given is cell-based, Staphylococcus aureus. To be noted: ATCC 29213, 20 h. The method, then: as §1
For the next experiment, the system named is S. aureus UAMS-1625. The class given is cell-based, Staphylococcus aureus. To be noted: S. aureus UAMS-1625 (BV18); CLSI broth dilution, cation-adjusted Mueller Hinton broth, 20 h, 35 °C, read visually. On the procedure: as §1
Background: Broth dilution looks for growth in wells or tubes with falling amounts of substance.

The test system of another experiment is ATCC 25922. It counts as cell-based, Enterococcus faecalis. The settings on record: ATCC 25922, 20 h. On the procedure:
as §1

Another experiment relates to E. faecalis ATCC 29212. The class given is cell-based, Enterococcus faecalis. The settings on record: ATCC 29212, 20 h. The method, then: as §1
The next experiment relates to E. faecium ATCC 51559. It counts as cell-based, Enterococcus faecium. The settings on record: ATCC 51559, 20 h. The method, then:
as §1

In a further experiment the test system is E. faecium IHMA 890472. The class given is cell-based, Enterococcus faecium. To be noted: IHMA 890472, 20 h. On the procedure:
as §1

Another experiment deals with A. baumannii ATCC 17978. The class given is cell-based, Acinetobacter baumannii. To be noted: ATCC 17978, 20 h. The method, then:
as §1

In another experiment the test system is A. baumannii HUMC1. The class given is cell-based, Acinetobacter baumannii. The settings on record: HUMC1, 20 h. The method, then: as §1
The next experiment deals with A. baumannii IHMA 777621. It counts as cell-based, Acinetobacter baumannii. To be noted: IHMA 777621, 20 h. On the procedure:
as §1

The next experiment has as its system E. coli 1214245. It counts as cell-based, Escherichia coli. To be noted: 1214245, 20 h. On the procedure: as §1
The test system of the next experiment is E. coli 1220120. The class given is cell-based, Escherichia coli. The settings on record: 1220120, 20 h. On the procedure: as §1
The next experiment relates to E. coli ATCC 25922. The class given is cell-based, Escherichia coli. To be noted: ATCC 25922, 20 h. The method, then: as §1
The test system of the next experiment is K. pneumoniae 1227947. It counts as cell-based, Klebsiella pneumoniae. To be noted: 1227947, 20 h. The method, then:
as §1

Another experiment deals with K. pneumoniae 1228586. The class given is cell-based, Klebsiella pneumoniae. To be noted: 1228586, 20 h. The method, then: as §1
The subject of another experiment is K. pneumoniae ATCC 13883. The class given is cell-based, Klebsiella pneumoniae. To be noted: ATCC 13883, 20 h. The method, then: as §1
For another experiment, the system named is P. aeruginosa 1218019. The class given is cell-based, Pseudomonas aeruginosa. The settings on record: 1218019, 20 h. The method, then: as §1
A further experiment has as its system P. aeruginosa 1226072. The class given is cell-based, Pseudomonas aeruginosa. To be noted: 1226072, 20 h. On the procedure: as §1
Another experiment relates to P. aeruginosa PAO1. It counts as cell-based, Pseudomonas aeruginosa. The settings on record: PAO1, 20 h. The method, then:
as §1

Another experiment relates to Rabbit red blood cells. As to the kind of experiment: Hemolysis assay. It counts as cell-based. The settings on record: rabbit red blood cells in PBS, 37 °C, 1 h, absorbance at 405 nm, normalization to the Triton X-100 control; 0.25 to 128 μg/mL tested. The method, then:
Peptides, dissolved in DMSO, were dispensed into 96-well round-bottom microplates using a TECAN D300e dispenser and subsequently diluted with 100 μL of PBS. PBS or 2% Triton X-100 was used as negative and positive controls, respectively. Rabbit red blood cells (BioConcept) were diluted in PBS to a final concentration of 2%, and 100 μL was added to each well of the prepared 96-well plates. The final concentration of the test compounds was 0.25 to 128 μg/mL. Plates were incubated at 37 °C for 1 h and afterward subjected to centrifugation at 1000g for 5 min. Then, 30 μL of supernatant was transferred to a new round-bottom plate, and absorbance was measured at 405 nm (TECAN Infinite F200). EC50s were calculated after blank subtraction and normalization to the Triton control.

A further experiment has as its system HepG2 cells. Description: Cytotoxicity determination (CellTiter-Glo). It counts as cell-based. The settings on record: HepG2, medium without serum, 24 h, normalization to the untreated control, 1 to 128 μg/mL tested. The method, then: HepG2 cells were grown in EMEM (Sigma) supplemented with 2 mM glutamine and 10% fetal bovine serum (Fisher) at 37 °C, 5% CO2. 20′000 cells per well were seeded into clear tissue culture-treated 96-well plates and incubated for 24 h. Peptides, dissolved in DMSO, were dispensed into 96 deep well plates (TECAN D300e dispenser) and diluted to a final concentration of 1 to 128 μg/mL using fresh medium without serum. The next day, the old media were removed from the cells, and 200 μL of the prepared compound dilutions was added per well. Plates were incubated for another 24 h before assessing the cell viability using the CellTiter-Glo kit (Promega) according to the manufacturer’s protocol. IC50s were calculated after normalization to the untreated control.
In general terms: ATP-based viability assays read luminescence as a measure of living cells.

Experiment [1] concerns Gram-positive bacteria (Staphylococcus aureus, Enterococcus faecalis, Enterococcus faecium). Description: MIC, summary over Gram-positive strains. It counts as cell-based. To be noted: at a concentration of 64 μg/mL; summary of Table 2. On the procedure:
as §1

The subject of experiment [2] is Gram-negative ESKAPE pathogens. The class given is cell-based. The settings on record: 20 h. The method, then:
as §1

≈ marks a conversion by molar mass, not a printed value. Where a SMILES comes first, the peptide text is derived from it. [ ]: non-standard residue; d: D form. The star is where a group is joined. d(aIle) = CC[C@H](C)[C@@H](N)C(=O)O; dDab = NCC[C@@H](N)C(=O)O; Octanoyl = CCCCCCCC(=O)*; Dab = NCC[C@H](N)C(=O)O

Broadly, the MIC is the lowest concentration found to suppress growth. Lower therefore signals inhibition by little substance. As to `CCCCCCCC(=O)N[C@@H](C(=O)N[C@H](CCN)C(=O)NCC(=O)N[C@H](CO)C(=O)N[C@H](Cc1c[nH]c2ccccc12)C(=O)N[C@@H](CO)C(=O)N[C@@H](CCN)C(=O)N[C@H](CCN)C(=O)N[C@@H](CCC(=O)O)C(=O)N[C@@H](CCC(=O)O)C(=O)N[C@H](C(=O)N[C@@H](C(=O)N[C@@H](C)C(=O)O)[C@@H](C)CC)C(C)C)C(C)C` [Oct-Glu9] (Octanoyl-[dV][dDab]G[dS][dW]S[Dab][dDab]EEV[d(aIle)]A-OH), the MIC in the experiment with S. aureus 1126387, against S. aureus ATCC 29213, against S. aureus UAMS-1625, with ATCC 25922, against E. faecalis ATCC 29212 and in the experiment on E. faecium ATCC 51559 was >64 µg/mL throughout. Also, the MIC was >64 µg/mL with E. faecium IHMA 890472; >64 µg/mL with A. baumannii ATCC 17978; >64 µg/mL against A. baumannii HUMC1; >64 µg/mL against A. baumannii IHMA 777621; >64 µg/mL in the experiment with E. coli 1214245; 64 µg/mL (≈ 42.6 µM) in the experiment on E. coli 1220120. The MIC with E. coli ATCC 25922, in the experiment with K. pneumoniae 1227947, in the experiment with K. pneumoniae 1228586, in the experiment on K. pneumoniae ATCC 13883, with P. aeruginosa 1218019 and against P. aeruginosa 1226072 was >64 µg/mL each time. In the experiment with P. aeruginosa PAO1, the MIC is >64 µg/mL. For the same compound, in the experiment on Rabbit red blood cells, the “Hemolysis EC50” value is >128 µg/mL. In the experiment with HepG2 cells, the “IC50 on HepG2 w/o FCS” value was >128 µg/mL. In [1], the “antibacterial activity against Gram-positive bacteria” value (shortened to “antibacterial activity”) is recorded as “no antibacterial activity”. Moreover, the “MICs, range over Gram-negative pathogens” value in experiment [2] is 8 to 64 µg/mL.
With `CCCCCCCC(=O)N[C@@H](C(=O)N[C@H](CCN)C(=O)NCC(=O)N[C@H](CO)C(=O)N[C@H](Cc1c[nH]c2ccccc12)C(=O)N[C@@H](CO)C(=O)N[C@@H](CCN)C(=O)N[C@H](CCN)C(=O)NCC(=O)N[C@@H](CCC(=O)O)C(=O)N[C@H](C(=O)N[C@@H](C(=O)N[C@@H](C)C(=O)O)[C@@H](C)CC)C(C)C)C(C)C` [Oct-Gly9] (Octanoyl-[dV][dDab]G[dS][dW]S[Dab][dDab]GEV[d(aIle)]A-OH), the MIC with S. aureus 1126387, against S. aureus ATCC 29213, against S. aureus UAMS-1625, in the experiment with ATCC 25922, with E. faecalis ATCC 29212 and against E. faecium ATCC 51559 was >64 µg/mL each time. In addition, the MIC against E. faecium IHMA 890472 was >64 µg/mL; against A. baumannii ATCC 17978, >64 µg/mL; with A. baumannii HUMC1, >64 µg/mL; against A. baumannii IHMA 777621, >64 µg/mL; with E. coli 1214245, 16 µg/mL (≈ 11.2 µM); in the experiment with E. coli 1220120 it was 16 µg/mL (≈ 11.2 µM). The MIC with E. coli ATCC 25922 was 16 µg/mL (≈ 11.2 µM); against K. pneumoniae 1227947, 32 µg/mL (≈ 22.4 µM); against K. pneumoniae 1228586, 8 µg/mL (≈ 5.59 µM); in the experiment with K. pneumoniae ATCC 13883 it was 16 µg/mL (≈ 11.2 µM); in the experiment on P. aeruginosa 1218019 it was >64 µg/mL; in the experiment on P. aeruginosa 1226072, 32 µg/mL (≈ 22.4 µM). In addition, in the experiment with P. aeruginosa PAO1, the MIC was found to be 64 µg/mL (≈ 44.7 µM). Besides, the “Hemolysis EC50” value in the experiment with Rabbit red blood cells was >128 µg/mL. Moreover, in the experiment with HepG2 cells, the “IC50 on HepG2 w/o FCS” value is >128 µg/mL. Moreover, in experiment [1], the “antibacterial activity” value was “no antibacterial activity”. In addition, the “MICs, range over Gram-negative pathogens” value in [2] was in the range of 8 to 64 µg/mL.
For the compound `CCCCCCCC(=O)N[C@@H](C(=O)N[C@H](CCN)C(=O)NCC(=O)N[C@H](CO)C(=O)N[C@H](Cc1c[nH]c2ccccc12)C(=O)N[C@@H](CO)C(=O)N[C@@H](CCN)C(=O)N[C@H](CCN)C(=O)N[C@@H](CO)C(=O)N[C@@H](CCC(=O)O)C(=O)N[C@H](C(=O)N[C@@H](C(=O)N[C@@H](C)C(=O)O)[C@@H](C)CC)C(C)C)C(C)C` [Oct-Ser9] (Octanoyl-[dV][dDab]G[dS][dW]S[Dab][dDab]SEV[d(aIle)]A-OH), the MIC against S. aureus 1126387, with S. aureus ATCC 29213, with S. aureus UAMS-1625, against ATCC 25922, in the experiment with E. faecalis ATCC 29212 and in the experiment with E. faecium ATCC 51559 was >64 µg/mL in each case. Besides, the MIC was >64 µg/mL in the experiment with E. faecium IHMA 890472; >64 µg/mL against A. baumannii ATCC 17978; >64 µg/mL in the experiment with A. baumannii HUMC1; >64 µg/mL with A. baumannii IHMA 777621; 64 µg/mL (≈ 43.8 µM) against E. coli 1214245; 32 µg/mL (≈ 21.9 µM) against E. coli 1220120. In addition, the MIC against E. coli ATCC 25922 was 32 µg/mL (≈ 21.9 µM); in the experiment with K. pneumoniae 1227947, >64 µg/mL; in the experiment on K. pneumoniae 1228586, 8 µg/mL (≈ 5.48 µM); in the experiment with K. pneumoniae ATCC 13883, 64 µg/mL (≈ 43.8 µM); in the experiment on P. aeruginosa 1218019 it was 32 µg/mL (≈ 21.9 µM); against P. aeruginosa 1226072, 32 µg/mL (≈ 21.9 µM). Also, in the experiment on P. aeruginosa PAO1, the MIC is >64 µg/mL. Further, in the experiment on Rabbit red blood cells, the “Hemolysis EC50” value is >128 µg/mL. For the same compound, the “IC50 on HepG2 w/o FCS” value in the experiment on HepG2 cells was >128 µg/mL. Moreover, in [1], the “antibacterial activity” value is “no antibacterial activity”. The “MICs, range over Gram-negative pathogens” value in experiment [2] fell in the range of 8 to 64 µg/mL.
